# Structures can show the parent of a compound that is named as a salt. Where two headings read alike, the source gives them in different places.
# Tests used:
# A549-mRuby cells = assay: Drug screening: effect on cell growth (cell number day 4 / day 0); details: 10 μM drug; for Growth_1: number of cells at day 4 divided by number of cells at day 0 / toxic_1: repeat #1; for Growth_2: number of cells at day 4 divided by number of cells at day 0 / toxic_2: repeat #2
# Summary of the method: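 Growth was scored as day 4/day 0 cell count from images of OC43-infected (MOI 0.3) A549-mRuby nuclear-reporter cells. Compounds were added at 10 μM final after a 1 h infection at 33° C, followed by 4 days of culture at 33° C in two independent screens.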
# OC43 = assay: Drug screening: OC43 nucleoprotein staining in infected A549-mRuby cells; assay type: cell-based, human beta coronavirus OC43
# Summary of the method: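 Repurposing screen: drugs at 10 μM final added 1 h after OC43 infection (MOI 0.3) of H2B-mRuby A549 cells, 4-day incubation at 33° C. Cell counts imaged at day 0 and day 4; nucleoprotein staining per cell normalized to untreated infected wells, hit threshold >3 SD in duplicate screens, non-toxic.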
# [1] = Betacoronavirus 1, OC43, 96 h, 10 μM drug, MOI 0.3, 4 days, OC43 staining normalized to no-drug controls, mean of the two screen repeats, read-out: OC43_mean
# [2] = Betacoronavirus 1, OC43, 96 h, 10 μM drug, MOI 0.3, 4 days, normalized to no-drug controls in the same plate, repeat #1, read-out: OC43_1: % staining of OC43 in screen repeat #1
# [3] = Betacoronavirus 1, OC43, 96 h, 10 μM drug, MOI 0.3, 4 days, normalized to no-drug controls in the same plate, repeat #2, read-out: OC43_2: % staining of OC43 in screen repeat #2
# [4] = 10 μM drug, MOI 0.3, 4 days, OC43 staining normalized to no-drug controls, mean of the two screen repeats
# [5] = 10 μM drug, MOI 0.3, 4 days, normalized to no-drug controls in the same plate, repeat #1
# [6] = 10 μM drug, MOI 0.3, 4 days, normalized to no-drug controls in the same plate, repeat #2
Molecule,Growth_1: number of cells at day 4 divided by number of cells at day 0 (A549-mRuby cells),toxic_1 (A549-mRuby cells),Growth_2: number of cells at day 4 divided by number of cells at day 0 (A549-mRuby cells),toxic_2 (A549-mRuby cells),"hit_1 (OC43; 10 μM drug, repeat #1)","hit_2 (OC43; 10 μM drug, repeat #2)",activity at 10 µM (OC43; [1]) [%],activity at 10 µM (OC43; [2]) [%],activity at 10 µM (OC43; [3]) [%],Growth_1: number of cells at day 4 divided by number of cells at day 0 (A549-mRuby cells; Dihydrate),Growth_2: number of cells at day 4 divided by number of cells at day 0 (A549-mRuby cells; Dihydrate),"activity at 10 µM (OC43; Betacoronavirus 1, 96 h, 10 μM drug, MOI 0.3, 4 days, OC43 staining normalized to no-drug controls, mean of the two screen repeats, read-out: OC43_mean) [%]",OC43_mean (OC43; [4]) [%],OC43_1: % staining of OC43 in screen repeat #1 (OC43; [5]) [%],OC43_2: % staining of OC43 in screen repeat #2 (OC43; [6]) [%],"activity at 10 µM (OC43; Betacoronavirus 1, OC43, 96 h, read-out: OC43_mean) [%]"
O=C(Nc1ccccc1)OCC(CN1CCCCC1)OC(=O)Nc1ccccc1 (centres unmarked) [Diperodon HCl],4.6,0,4.4,0,1,1,42.9,24.2,61.6,–,–,–,–,–,–,–
CC[C@H]1OC(=O)[C@H](C)[C@@H](O[C@H]2C[C@@](C)(OC)[C@@H](O)[C@H](C)O2)[C@H](C)[C@@H](O[C@@H]2O[C@H](C)C[C@H](N(C)C)[C@H]2O)[C@](C)(O)C[C@@H](C)CN(C)[C@H](C)[C@@H](O)[C@]1(C)O [Azithromycin Dihydrate],–,0,–,0,1,1,18.2,20.5,15.9,5.4,5.0,–,–,–,–,–
CCCCCCCC(=O)N[C@H](CN1CCCC1)[C@H](O)c1ccc2c(c1)OCCO2 [Eliglustat],5.5,0,4.8,0,1,1,–,22.7,20.4,–,–,21.5,–,–,–,–
CN(C)CCC=C1c2ccccc2C=Cc2ccccc21 [Cyclobenzaprine HCl],3.3,0,2.1,0,1,1,46.5,45.2,47.7,–,–,–,–,–,–,–
"CN1CCN(CCOc2cc(OC3CCOCC3)c3c(Nc4c(Cl)ccc5c4OCO5)ncnc3c2)CC1 [Saracatinib (AZD0530), Saracatinib]",3.1,0,4.0,0,1,1,22.7,21.2,24.1,–,–,–,–,–,–,–
CC(N)C12CC3CC(CC(C3)C1)C2 (centres unmarked) [Rimantadine Hydrochloride],4.4,0,5.1,0,1,1,52.6,50.6,54.6,–,–,–,–,–,–,–
CC(CN1c2ccccc2Sc2ccccc21)N(C)C (centres unmarked) [Promethazine HCl],3.0,0,2.4,0,1,1,24.4,19.4,29.5,–,–,–,–,–,–,–
Carvedilol Phosphate,4.4,0,2.9,0,1,1,–,–,–,–,–,–,28.9,32.3,25.5,–
OCCN1CCN(CCCN2c3ccccc3Sc3ccc(Cl)cc32)CC1 [Perphenazine],2.2,0,2.5,0,1,1,42.8,59.8,25.8,–,–,–,–,–,–,–
Pizotifen Malate,3.4,0,2.8,0,1,1,–,–,–,–,–,–,25.4,33.3,17.5,–
CN1CCC(OC(c2ccccc2)c2ccccc2)CC1 [Diphenylpyraline HCl],6.0,0,4.2,0,1,1,–,33.2,51.6,–,–,–,–,–,–,42.4
Ifenprodil Tartrate,4.6,0,4.9,0,1,1,–,–,–,–,–,–,25.6,29.0,22.1,–
CCN(CCO)CCCC(C)Nc1ccnc2cc(Cl)ccc12 (centres unmarked) [Hydroxychloroquine Sulfate],5.1,0,4.9,0,1,1,16.2,17.8,14.6,–,–,–,–,–,–,–
CN1C2CCC1CC(OC(c1ccccc1)c1ccccc1)C2.CS(=O)(=O)O (centres unmarked) [Benztropine mesylate],4.4,0,5.1,0,1,1,10.1,7.4,12.8,–,–,–,–,–,–,–
N=C(N)N/N=C/c1c(Cl)cccc1Cl [Guanabenz Acetate],5.3,0,4.4,0,1,1,34.6,31.1,38.1,–,–,–,–,–,–,–
CN1CCCCC1CCN1c2ccccc2Sc2ccc([S+](C)[O-])cc21 (centres unmarked) [Mesoridazine Besylate],4.7,0,4.7,0,1,1,20.3,15.6,25,–,–,–,–,–,–,–
"CC(C)(C)c1nc(-c2cccc(NS(=O)(=O)c3c(F)cccc3F)c2F)c(-c2ccnc(N)n2)s1 [Dabrafenib (GSK2118436), Dabrafenib]",3.9,0,5.5,0,1,1,41.6,36.3,47,–,–,–,–,–,–,–
CCCCOc1cc(C(=O)NCCN(CC)CC)c2ccccc2n1 [Cinchocaine],4.3,0,4.2,0,1,1,41.6,18.9,64.3,–,–,–,–,–,–,–
"COc1cc2ncnc(Nc3ccc(F)c(Cl)c3)c2cc1OCCCN1CCOCC1 [Gefitinib (ZD1839), Gefitinib]",3.4,–,3.7,–,–,–,–,–,–,–,–,–,35.5,39.7,31.3,–
C#C[C@]1(O)CC[C@H]2[C@@H]3CCC4=CC(=O)CC[C@@H]4[C@H]3C(=C)C[C@@]21CC [Etonogestrel],4.3,0,4.3,0,1,1,44.3,47.8,40.7,–,–,–,–,–,–,–
CCC(=O)OCC(=O)[C@@]1(OC(=O)CC)[C@@H](C)C[C@H]2[C@@H]3CCC4=CC(=O)C=C[C@]4(C)[C@@]3(Cl)[C@@H](O)C[C@@]21C [Beclomethasone dipropionate],3.4,0,4.6,0,1,1,33.6,38.3,29,–,–,–,–,–,–,–
